Reference: ChEMBL document CHEMBL5154734, “Novel potent benzimidazole-based microsomal prostaglandin E2 synthase-1 (mPGES-1) inhibitors derived from BRP-201 that also inhibit leukotriene C4 synthase” (Eur J Med Chem, 2022)
Activity calls are given as the source filed them. The calls are words filed in the database; no cut-off is given here.

Columns and labels:
[1] = biological target: T1, Polyunsaturated fatty acid 5-lipoxygenase (Homo sapiens, UniProt P09917); experiment: Inhibition of human recombinant 5-LOX expressed in Escherichia coli BL21 assessed as inhibition of […] 5-LO product LTB4 formation preincubated for 15 mins followed by arachidonic acid addition and measured after 10 mins by RP-HPLC analysis
T1 sequence (P09917 whole entry): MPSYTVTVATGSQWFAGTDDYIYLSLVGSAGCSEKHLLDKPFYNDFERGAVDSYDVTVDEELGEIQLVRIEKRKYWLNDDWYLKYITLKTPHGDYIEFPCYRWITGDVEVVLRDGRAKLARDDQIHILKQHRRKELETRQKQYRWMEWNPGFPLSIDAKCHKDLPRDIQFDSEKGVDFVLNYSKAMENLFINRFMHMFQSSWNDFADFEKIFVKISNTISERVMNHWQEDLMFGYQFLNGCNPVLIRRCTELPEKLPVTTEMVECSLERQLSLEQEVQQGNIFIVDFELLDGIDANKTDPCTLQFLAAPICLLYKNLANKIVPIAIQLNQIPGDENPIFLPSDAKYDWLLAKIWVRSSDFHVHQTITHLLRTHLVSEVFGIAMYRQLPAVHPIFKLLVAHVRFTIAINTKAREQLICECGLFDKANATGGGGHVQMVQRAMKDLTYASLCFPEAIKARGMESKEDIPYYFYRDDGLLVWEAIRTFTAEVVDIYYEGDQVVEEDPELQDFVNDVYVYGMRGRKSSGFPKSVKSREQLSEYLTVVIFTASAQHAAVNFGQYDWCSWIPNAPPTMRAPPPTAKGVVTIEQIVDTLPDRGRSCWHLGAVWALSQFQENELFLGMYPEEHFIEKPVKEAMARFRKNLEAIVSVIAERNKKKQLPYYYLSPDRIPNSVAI

[2] = biological target: T2, Prostaglandin E synthase (Homo sapiens, UniProt O14684); experiment: Inhibition of mPGES-1 activity in human A549 microsomal preparation using PGH2 as substrate preincubated for 15 mins followed by substrate addition for 1 min by RP-HPLC analysis; type: microsomes, Microsome
T2 sequence (O14684 whole entry): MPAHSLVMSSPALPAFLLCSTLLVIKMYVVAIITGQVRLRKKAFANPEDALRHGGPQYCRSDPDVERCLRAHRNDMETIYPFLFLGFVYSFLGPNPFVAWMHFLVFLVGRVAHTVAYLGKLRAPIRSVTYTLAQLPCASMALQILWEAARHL

[3] = biological target: T3, Prostaglandin E synthase (Homo sapiens) (UniProt O14684); experiment: Inhibition of mPGES-1 activity in IL-1beta human A549 microsomal preparation at 10 uM using PGH2 as substrate preincubated for 15 mins followed by substrate addition for 1 min by RP-HPLC analysis; type: microsomes; details: Microsome, time 16.0 min
T3 sequence (whole entry): T2 sequence (O14684 whole entry)

[4] = biological target: T4, Leukotriene C4 synthase (Homo sapiens, UniProt Q16873); experiment: Inhibition of human recombinant LTC4S expressed in HEK293 cell microsomal fraction preincubated for 10 mins followed by LTA4-methyl ester addition and measured after 10 mins by UPLC-MS/MS analysis; type: microsomes, Microsome
T4 sequence (Q16873 whole entry): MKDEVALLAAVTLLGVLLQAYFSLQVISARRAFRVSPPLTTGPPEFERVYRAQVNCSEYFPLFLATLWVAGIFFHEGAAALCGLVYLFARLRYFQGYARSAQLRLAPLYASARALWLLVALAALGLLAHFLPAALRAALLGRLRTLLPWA

[5] = biological target: T5, Polyunsaturated fatty acid 5-lipoxygenase (Homo sapiens) (UniProt P09917); experiment: Inhibition of 5-LOX in human neutrophils assessed as reduction in FLAP-dependent 5-LO product LTB4 formation at upto 10 uM preincubated for 10 mins followed by A23187 addition and measured after 10 mins by RP-HPLC and UV detection method; type: cell-based; details: Neutrophil
T5 sequence (whole entry): T1 sequence (P09917 whole entry)

[6] = tested on: Neutrophil; experiment: Cytotoxicity against human neutrophils assessed as reduction in cell viability at 10 uM by LDH release assay; type: toxicity, cell-based
[7] = biological target: T4, Leukotriene C4 synthase; experiment: Inhibition of recombinant LTC4S (unknown origin) expressed in COS cells; type: cell-based

IC50 [1] | IC50 [2] | IC50 [4] | inhibition [5] | SMILES | Activity [6] | further results
1.26 µM | 0.03 µM | 0.7 µM | Active | S=c1[nH]nc(-c2ccc3[nH]c(-c4ccc(OCc5ccccc5)cc4)nc3c2)o1 | Non-Toxic | inhibition [3]: Active
– | 2.2 µM | – | – | O=C(Nc1cc(-c2n[nH]c(=S)o2)ccc1F)c1ccc(OCc2ccccc2)cc1 | – | –
3.71 µM | 0.03 µM | 2.8 µM | Active | S=c1[nH]nc(-c2ccc3[nH]c(-c4ccc(Oc5ccccc5)cc4)nc3c2)o1 | Non-Toxic | –
– | 1.06 µM | – | – | Cn1c(-c2ccc(OCc3ccccc3)cc2)nc2cc(-c3n[nH]c(=S)o3)ccc21 | – | –
2.62 µM | 0.09 µM | 0.4 µM | Active | CC(c1ccc(Oc2ccccc2)cc1)c1nc2cc(-c3n[nH]c(=S)o3)ccc2[nH]1 (configuration not stated) | Non-Toxic | –
– | – | – | – | CC(C)c1ccc2c(c1)c(SC(C)(C)C)c(CC(C)(C)C(=O)O)n2Cc1ccc(Cl)cc1 | – | IC50 [7]: 3 µM
– | – | – | – | COc1cc(-c2nc3cc(-c4n[nH]c(=S)o4)ccc3[nH]2)ccc1OCc1ccccc1 | – | inhibition [3]: Active
– | 2.5 µM | – | – | O=C(Nc1cccc(-c2n[nH]c(=S)o2)c1)c1ccc(OCc2ccccc2)cc1 | – | –
– | 1.6 µM | – | – | S=c1[nH]nc(-c2ccc3[nH]c(Cc4ccc(OCc5ccccc5)cc4)nc3c2)o1 | – | –
